Experimental data: patent publication US20250143933A1, “ENDOSCOPIC, PERCUTANEOUS AND OTHER METHODS FOR DISSOLUTION OF PANCREATIC NECROSIS” (The Johns Hopkins University, priority 2021, published 2025)

Assays:
[1] = cited from earlier work
[2] = concentrations higher than 30%; cited from earlier work
[3] = previous attempts, literature; cited from earlier work
[4] = Ex vivo dissolution of solid WON debris by candidate debridement compounds; design: species or system human
Protocol: To perform preliminary proof-of-concept testing, solid WON debris was collected from seven patients undergoing endoscopic necrosectomy. […] Several candidate compounds that might be suitable, alone or in combination, for WON debris dissolution were identified. The candidate debridement compounds were tested on ex vivo samples to assess their capacity for dissolving WON debris.

[O][Cl+][O-] [Chlorine dioxide, reference compound]
Effect compared to 5.8% NaOCl ([1]; chlorine dioxide 13.8%): shown to be similar

OO [Hydrogen peroxide, reference compound]
Toxicity (local damage) [2]: shown to be toxic
Success as chemical dissolution agent to aid endoscopic necrosectomy [3]: minimal success

OCl [NaOCl, Sodium hypochlorite]
Solvent properties in WON samples ([4]; ex vivo, concentration of 5% (FIG. 4)): excellent solvent properties
Time to breakdown of human pancreas necrosis debris ([4]; petri dish, dilute sodium hypochlorite 2.5% (FIG. 4)): within minutes
Pulp dissolution ([1]; 8.25% NaOCl, dental surgery studies (Cullen et al., 2015)): rapid pulp dissolution

CC(C)=O [acetone, reference compound]
Effect on WON debris (dissolution) ([4]; ex vivo samples from patients undergoing endoscopic necrosectomy, lipophilic solvent): minimal to no effect

streptokinase: previously tried chemical dissolution agent to aid endoscopic necrosectomy
Success as chemical dissolution agent to aid endoscopic necrosectomy [3]: minimal success

tissue plasminogen activator: previously tried chemical dissolution agent to aid endoscopic necrosectomy
Success as chemical dissolution agent to aid endoscopic necrosectomy [3]: minimal success
